Test results reported in patent US10689374B1, “Pyrimidine-thiazolidinone derivatives” (UNITED ARAB EMIRATES UNIVERSITY, priority 2019, dated 2020).
Entries after “also recorded” stand apart in the source; their conditions may differ. Where a name gives a salt, the structure may show the parent alone.

How the values were obtained:
βTC6 cells = experiment: Insulin secretion from βTC6 cells (high range insulin Sandwich ELISA kit); format: cell-based; details: compounds at 10^−12, 10^−9, 10^−6 M; for basal insulin secretion: absence of glucose; for glucose stimulated insulin release: presence of 2.8 mM glucose
Procedure: Secretion of insulin by βTC6 cells was measured using the high range insulin Sandwich ELISA kit.
Similarly, a variety of thiazolidinedione-2,4-dione-pyrimidine derivatives, at 10^−12, 10^−9, 10^−6 M concentrations, were investigated for their effect on insulin secretion in the absence and presence of 2.8 mM glucose from βTC6 cells. […] These compounds also increase insulin secretion in the presence of glucose and, thereby, prevent hyperglycemia.
The effects of rhodanine-pyrimidine derivatives 130a-g were also investigated at 10^−12, 10^−9, 10^−6 M concentrations, for effect on insulin secretion in absence and presence of 2.8 mM glucose in βTC6 cells.

β TC6 cells = experiment: In vitro glucose uptake assay; format: cell-based; details: each compound at a concentration of 10 μM
Procedure: FIG. 5A is a bar graph comparing the results of pioglitazone with compounds 130a-g, each at a concentration of 10 μM, for effect on glucose uptake from β TC6 cells.
FIG. 5B is a bar graph comparing the results of pioglitazone with compounds 112, 105a-d, 121, 117, 119, and 126, each at a concentration of 10 μM, for effect on glucose uptake from β TC6 cells.
FIG. 5C is a bar graph comparing the results of metformin with compound 138, each at a concentration of 10 μM, for effect on glucose uptake from β TC6 cells.
The results of the in vitro glucose uptake study are depicted in FIGS. 5A-5C.

Row | Compound | basal insulin secretion (βTC6 cells) | glucose stimulated insulin release (βTC6 cells) | glucose uptake (β TC6 cells)
1 | CN=C1NC(=O)/C(=C\c2ccc(S(=O)(=O)[n+]3ccccc3)cc2)S1 [Compound 105a, 2-(Methylimino)-5-[4′-(N-pyridinesulfonyl)benzylidine]thiazolidin-4-one chloride salt] | significant decrease | significant increase | most potent activity
2 | C/N=C1/NC(=O)/C(=C\c2ccc(S(=O)(=O)Nc3ccnc(N)n3)cc2)S1 [Compound 105b] | significant decrease | significant increase | most potent activity
3 | Nc1nccc(NS(=O)(=O)c2ccc(/C=C3/SC(=O)NC3=O)cc2)n1 [Compound 105c] | no effect | significantly increased | most potent activity
4 | CN=C1NC(=O)/C(=C\c2cnc(Nc3cccc4ccccc34)nc2)S1 [Compound 112] | – | – | most potent activity
5 | Nc1nccc(NC(=O)CC2SC(=O)NC2=O)n1 (stereo not shown) [Compound 117, N-(2′-Aminopyrimidin-4′-yl)-2-(2″,4″-dioxothiazolidin-5″-yl)acetamide] | significantly inhibited | – | most potent activity
6 | Cc1ccc(S(=O)(=O)NC(=O)Nc2nccc(NC(=O)CC3SC(=O)NC3=O)n2)cc1 (stereo not shown) [Compound 119, 2-(2′,4′-Dioxothiazolidin-5-yl)-N-[2″-(p-tosylureido)pyrimidin-4″-yl]acetamide] | significantly increased | – | most potent activity
7 | Cc1cc(O)nc(NC(=O)CN2C(=O)/C(=C\c3ccc(F)cc3)SC2=S)n1 [Compound 126, (E)-2-[5′-(p-Fluorobenzylidene)-4′-oxo-2′-thioxothiazolidin-3′-yl]-N-(4″-hydroxy-6″-methyl-pyrimidin-2″-yl)acetamide] | significant decrease | significant increase | enhancing the glucose uptake significantly (p<0.001)
8 | CN(C)c1ncc(/C=C2\SC(=S)NC2=O)cn1 [Compound 130a] | did not show any effect | did not show any effect | –
9 | Nc1ncc(/C=C2\SC(=S)NC2=O)cn1 [Compound 130b, (Z)-5-[(2′-Aminopyrimidin-5′-yl)methylene]-2-thioxothiazolidin-4-one] | significantly increased | – | –
10 | CN(C)c1ncc(/C=C2\SC(=S)N(CC(=O)O)C2=O)cn1 [Compound 130c] | – | significantly increased | –
11 | CC(C)Nc1ncc(/C=C2\SC(=S)N(CC(=O)O)C2=O)cn1 [Compound 130d] | did not show any effect | did not show any effect | –
12 | O=C(O)CN1C(=O)/C(=C/c2cnc(N3CCOCC3)nc2)SC1=S [Compound 130e] | significant increases | significant increases | most potent activity
13 | CCCNc1ncc(/C=C2\SC(=S)N(CC(=O)O)C2=O)cn1 [Compound 130f] | significant increases | significant increases | most potent activity
14 | O=C(O)CN1C(=O)/C(=C/c2cnc(NCc3ccccc3)nc2)SC1=S [Compound 130g, (Z)-2-{5′-[2″-(Benzylamino)pyrimidin-5″-yl]methylene-4′-oxo-2′-thioxothiazolidin-3′-yl}acetic acid] | – | significantly increased | most potent activity; also recorded: enhancing the glucose uptake significantly (p<0.001)
